Data from ChEMBL document CHEMBL4177670, “Potential antimicrobial agents from triazole-functionalized 2H-benzo[b][1,4]oxazin-3(4H)-ones” (2017).
In brackets after ≈: the same amount, converted by molar mass.

What was measured:
[1] = system: Staphylococcus aureus; experiment: Antibacterial activity against Staphylococcus aureus MLS-16 MTCC 2940 after 24 hrs by agar well diffusion method; assay type: functional; conditions: MLS-16 MTCC 2940, 24 h
[2] = system: Staphylococcus aureus; experiment: Bactericidal activity against Staphylococcus aureus MLS-16 MTCC 2940 measured after 24 hrs; assay type: functional; conditions: MLS-16 MTCC 2940, 24 h
[3] = system: Escherichia coli; experiment: Antibacterial activity against Escherichia coli MTCC 739 after 24 hrs by agar well diffusion method; assay type: functional; conditions: MTCC 739, 24 h
[4] = system: Escherichia coli; experiment: Bactericidal activity against Escherichia coli MTCC 739 measured after 24 hrs; assay type: functional; conditions: MTCC 739, 24 h
[5] = system: Candida albicans; experiment: Antifungal activity against Candida albicans MTCC 3017; assay type: functional
[6] = system: Candida albicans; experiment: Fungicidal activity against Candida albicans MTCC 3017 measured after 24 hrs; assay type: functional; conditions: MTCC 3017, 24 h
[7] = system: Raoultella planticola; experiment: Antibacterial activity against Klebsiella planticola MTCC 530 after 24 hrs by agar well diffusion method; assay type: functional; conditions: MTCC 530, 24 h
[8] = system: Raoultella planticola; experiment: Bactericidal activity against Klebsiella planticola MTCC 530 measured after 24 hrs; assay type: functional; conditions: MTCC 530, 24 h
[9] = system: Staphylococcus aureus; experiment: Antibacterial activity against Staphylococcus aureus MTCC 96 after 24 hrs by agar well diffusion method; assay type: functional; conditions: MTCC 96, 24 h
[10] = system: Staphylococcus aureus; experiment: Bactericidal activity against Staphylococcus aureus MTCC 96 measured after 24 hrs; assay type: functional; conditions: MTCC 96, 24 h
[11] = system: Bacillus subtilis; experiment: Antibacterial activity against Bacillus subtilis MTCC 121 after 24 hrs by agar well diffusion method; assay type: functional; conditions: MTCC 121, 24 h
[12] = system: Micrococcus luteus; experiment: Bactericidal activity against Micrococcus luteus MTCC 2470 measured after 24 hrs; assay type: functional; conditions: MTCC 2470, 24 h
[13] = system: Micrococcus luteus; experiment: Antibacterial activity against Micrococcus luteus MTCC 2470 after 24 hrs by agar well diffusion method; assay type: functional; conditions: MTCC 2470, 24 h
[14] = system: Bacillus subtilis; experiment: Bactericidal activity against Bacillus subtilis MTCC 121 measured after 24 hrs; assay type: functional; conditions: MTCC 121, 24 h
[15] = system: Pseudomonas aeruginosa; experiment: microbe, parasite or virus in culture; conditions: MTCC 2453, 24 h
Description: Bactericidal activity against Pseudomonas aeruginosa MTCC 2453 measured after 24 hrs

Row | SMILES | MIC [1] [µg/mL] | MBC [2] [µg/mL] | MIC [3] [µg/mL] | MBC [4] [µg/mL] | MIC [5] [µg/mL] | MFC [6] [µg/mL] | MIC [7] [µg/mL] | MBC [8] [µg/mL] | MIC [9] [µg/mL] | MBC [10] [µg/mL] | MIC [11] [µg/mL] | MBC [12] [µg/mL] | MIC [13] [µg/mL] | MBC [14] [µg/mL] | MBC [15] [µg/mL]
1 | O=C1COc2ccccc2N1Cc1cn(Cc2ccccc2)nn1 | 1.9 (≈ 5.93 µM) | 3.9 (≈ 12.2 µM) | 3.9 (≈ 12.2 µM) | 7.8 (≈ 24.3 µM) | – | – | – | – | – | – | – | – | – | – | –
2 | O=C1COc2ccc(Cl)cc2N1Cc1cn(Cc2ccccc2)nn1 | – | – | – | – | 7.8 (≈ 22 µM) | 15.6 (≈ 44 µM) | – | – | – | – | – | – | – | – | –
3 | O=C1COc2ccccc2N1Cc1cn(-c2ccc(F)cc2)nn1 | – | – | 7.8 (≈ 24.1 µM) | 15.6 (≈ 48.1 µM) | 3.9 (≈ 12 µM) | 7.8 (≈ 24.1 µM) | – | – | – | – | – | – | – | – | –
4 | COc1ccc(-n2cc(CN3C(=O)COc4ccc(Cl)cc43)nn2)cc1 | 1.9 (≈ 5.12 µM) | 3.9 (≈ 10.5 µM) | – | – | 7.8 (≈ 21 µM) | 15.6 (≈ 42.1 µM) | – | – | – | – | – | – | – | – | –
5 | Cc1ccc(-n2cc(CN3C(=O)COc4ccccc43)nn2)cc1 | 3.9 (≈ 12.2 µM) | 7.8 (≈ 24.3 µM) | 3.9 (≈ 12.2 µM) | 7.8 (≈ 24.3 µM) | 7.8 (≈ 24.3 µM) | 15.6 (≈ 48.7 µM) | 3.9 (≈ 12.2 µM) | 7.8 (≈ 24.3 µM) | – | – | – | – | – | – | –
6 | Cc1ccccc1-n1cc(CN2C(=O)COc3ccccc32)nn1 | 3.9 (≈ 12.2 µM) | 7.8 (≈ 24.3 µM) | 3.9 (≈ 12.2 µM) | 7.8 (≈ 24.3 µM) | 7.8 (≈ 24.3 µM) | 15.6 (≈ 48.7 µM) | 3.9 (≈ 12.2 µM) | 7.8 (≈ 24.3 µM) | – | – | – | – | – | – | –
7 | O=C1COc2ccc(Cl)cc2N1Cc1cn(-c2ccc(F)cc2)nn1 | 1.9 (≈ 5.3 µM) | 3.9 (≈ 10.9 µM) | 3.9 (≈ 10.9 µM) | 7.8 (≈ 21.7 µM) | 7.8 (≈ 21.7 µM) | 15.6 (≈ 43.5 µM) | 3.9 (≈ 10.9 µM) | 7.8 (≈ 21.7 µM) | 3.9 (≈ 10.9 µM) | 7.8 (≈ 21.7 µM) | 1.9 (≈ 5.3 µM) | 3.9 (≈ 10.9 µM) | 1.9 (≈ 5.3 µM) | 3.9 (≈ 10.9 µM) | –
8 | O=C1COc2ccccc2N1Cc1cn(-c2ccc([N+](=O)[O-])cc2)nn1 | – | – | – | – | 15.6 (≈ 44.4 µM) | 31.2 (≈ 88.8 µM) | – | – | – | – | – | – | – | – | –
9 | O=C1COc2ccccc2N1Cc1cn(-c2ccc(Cl)cc2)nn1 | – | – | – | – | 7.8 (≈ 22.9 µM) | 15.6 (≈ 45.8 µM) | – | – | – | – | – | – | – | – | –
10 | O=C1COc2ccc(Cl)cc2N1Cc1cn(-c2ccc([N+](=O)[O-])cc2)nn1 | – | – | – | – | 7.8 (≈ 20.2 µM) | 15.6 (≈ 40.4 µM) | – | – | – | – | – | – | – | – | –
11 | COc1ccc(-n2cc(CN3C(=O)COc4ccccc43)nn2)cc1 | – | – | 7.8 (≈ 23.2 µM) | 15.6 (≈ 46.4 µM) | 3.9 (≈ 11.6 µM) | 7.8 (≈ 23.2 µM) | – | – | – | – | – | – | – | – | –
12 | O=C1COc2ccccc2N1Cc1cn(-c2ccccc2)nn1 | – | – | – | – | – | – | 3.9 (≈ 12.7 µM) | 7.8 (≈ 25.5 µM) | 3.9 (≈ 12.7 µM) | 7.8 (≈ 25.5 µM) | – | – | – | – | –
13 | Cc1ccc(-n2cc(CN3C(=O)COc4ccc(Cl)cc43)nn2)cc1 | 1.9 (≈ 5.36 µM) | 3.9 (≈ 11 µM) | – | – | 7.8 (≈ 22 µM) | 15.6 (≈ 44 µM) | 3.9 (≈ 11 µM) | 7.8 (≈ 22 µM) | 1.9 (≈ 5.36 µM) | 3.9 (≈ 11 µM) | 1.9 (≈ 5.36 µM) | 3.9 (≈ 11 µM) | 1.9 (≈ 5.36 µM) | 3.9 (≈ 11 µM) | –
14 | Cc1ccccc1-n1cc(CN2C(=O)COc3ccc(Cl)cc32)nn1 | 1.9 (≈ 5.36 µM) | 3.9 (≈ 11 µM) | 3.9 (≈ 11 µM) | 7.8 (≈ 22 µM) | 7.8 (≈ 22 µM) | 15.6 (≈ 44 µM) | 3.9 (≈ 11 µM) | 7.8 (≈ 22 µM) | 1.9 (≈ 5.36 µM) | 3.9 (≈ 11 µM) | 1.9 (≈ 5.36 µM) | 3.9 (≈ 11 µM) | 1.9 (≈ 5.36 µM) | 3.9 (≈ 11 µM) | –
15 | O=C(O)c1cn(C2CC2)c2cc(N3CCNCC3)c(F)cc2c1=O [CIPROFLOXACIN] | 0.9 (≈ 2.72 µM) | 0.9 (≈ 2.72 µM) | 0.9 (≈ 2.72 µM) | 0.9 (≈ 2.72 µM) | – | – | 0.9 (≈ 2.72 µM) | 0.9 (≈ 2.72 µM) | 0.9 (≈ 2.72 µM) | 0.9 (≈ 2.72 µM) | 0.9 (≈ 2.72 µM) | 0.9 (≈ 2.72 µM) | 0.9 (≈ 2.72 µM) | 0.9 (≈ 2.72 µM) | 0.9 (≈ 2.72 µM)
16 | Clc1ccc(COC(Cn2ccnc2)c2ccc(Cl)cc2Cl)c(Cl)c1 (centres undefined) [MICONAZOLE] | – | – | – | – | 7.8 (≈ 18.7 µM) | 7.8 (≈ 18.7 µM) | – | – | – | – | – | – | – | – | –
